Data taken from patent US9796700B2 (Celgene CAR LLC, priority 2013, dated 2017).

Key:
Erk1 = Erk1 (Homo sapiens (Human), UniProt P27361); experiment: Protein Mass Modification Assay (intact protein MALDI); format: binding
Method in brief: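 Human Erk1 was incubated 60 min at room temperature with a 10-fold molar excess of compound, then analysed as intact protein by MALDI with sinapinic acid matrix. The centroid mass shift versus untreated protein was divided by compound molecular weight to give percent modified protein.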

MEK1 activated ERK1 = MEK1 activated ERK1 (Homo sapiens (Human), UniProt P27361); experiment: Omnia continuous-read kinase assay for potency against MEK1 activated ERK1; format: biochemical; settings: MEK1 activated ERK1, WT, ATP at KM
MEK1 activated ERK1, sequence (P27361 whole entry): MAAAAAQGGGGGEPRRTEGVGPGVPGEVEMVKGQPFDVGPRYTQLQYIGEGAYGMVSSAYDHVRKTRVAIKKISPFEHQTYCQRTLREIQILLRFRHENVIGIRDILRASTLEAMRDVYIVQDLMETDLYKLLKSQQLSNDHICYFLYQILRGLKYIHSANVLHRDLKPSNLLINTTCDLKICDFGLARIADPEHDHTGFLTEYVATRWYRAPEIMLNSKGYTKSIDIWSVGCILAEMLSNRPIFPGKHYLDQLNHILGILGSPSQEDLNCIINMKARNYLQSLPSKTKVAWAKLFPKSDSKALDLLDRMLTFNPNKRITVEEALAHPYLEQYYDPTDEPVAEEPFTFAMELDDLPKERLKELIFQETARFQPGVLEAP
Method in brief: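 Apparent IC50 came from initial reaction slopes (RFU vs time) plotted against log inhibitor with a variable-slope fit. Reactions were started with ERK1 (4 nM final) added to 50 μM ATP, roughly at its appKM, and 10 μM Sox-conjugated ST17 peptide in 20 mM Tris pH 7.5, 5 mM MgCl2. Fluorescence was monitored every 71 seconds.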

Erk1, sequence (P27361 whole entry, looked up): as the sequence (P27361 whole entry) above

SMILES: C=CC(=O)Nc1cc(Cl)ccc1Nc1nc(Nc2cc(OC)ncc2C)ncc1C(F)(F)F [Compound I-289, N-(5-Chloro-2-((2-((2-methoxy-5-methylpyridin-4-yl)amino)-5-(trifluoromethyl)pyrimidin-4-yl)amino)phenyl)acrylamide]
- ERK1 Mass Mod (%) (Erk1): E (provided a mass modification of ≧70%)
- IC50 (MEK1 activated ERK1): < 100 nM

SMILES: C=CC(=O)Nc1ccccc1Nc1nc(Nc2cc(OC)nc(N3CCN(S(C)(=O)=O)CC3)c2)ncc1C(F)(F)F [Compound I-290, N-(2-((2-((2-Methoxy-6-(4-(methylsulfonyl)piperazin-1-yl)pyridin-4-yl)amino)-5-(trifluoromethyl)pyrimidin-4-yl)amino)phenyl)acrylamide]
- ERK1 Mass Mod (%) (Erk1): E (provided a mass modification of ≧70%)
- IC50 (MEK1 activated ERK1): > 1000 nM

SMILES: C=CC(=O)Nc1ccccc1Nc1nc(Nc2cc(OC)nc(N3CCS(=O)(=O)CC3)c2)ncc1C(F)(F)F [Compound I-291, N-(2-((2-((2-(1,1-Dioxidothiomorpholino)-6-methoxypyridin-4-yl)amino)-5-(trifluoromethyl)pyrimidin-4-yl)amino)phenyl)acrylamide]
- ERK1 Mass Mod (%) (Erk1): E (provided a mass modification of ≧70%)
- IC50 (MEK1 activated ERK1): < 100 nM

SMILES: C=CC(=O)Nc1cc(C)ccc1Nc1nc(Nc2cc(OC)nc(N3CCN(C(C)=O)CC3)c2)ncc1Cl [Compound I-296, N-(2-((2-((2-(4-acetylpiperazin-1-yl)-6-methoxypyridin-4-yl)amino)-5-chloropyrimidin-4-yl)amino)-5-methylphenyl)acrylamide]
- ERK1 Mass Mod (%) (Erk1): E (provided a mass modification of ≧70%)
- IC50 (MEK1 activated ERK1): < 100 nM

SMILES: C=CC(=O)Nc1cc(OC)ccc1Nc1nc(Nc2cc(OC)nc(N3CCN(C(C)=O)CC3)c2)ncc1Cl [Compound I-297, N-(2-((2-((2-(4-acetylpiperazin-1-yl)-6-methoxypyridin-4-yl)amino)-5-chloropyrimidin-4-yl)amino)-5-methoxyphenyl)acrylamide]
- ERK1 Mass Mod (%) (Erk1): E (provided a mass modification of ≧70%)
- IC50 (MEK1 activated ERK1): < 100 nM

SMILES: C=CC(=O)Nc1cccc(Nc2nc(Nc3ccc(N4CCN(C(C)=O)CC4)cc3OC)ncc2Cl)c1 [Compound I-298, N-(3-((2-((4-(4-acetylpiperazin-1-yl)-2-methoxyphenyl)amino)-5-chloropyrimidin-4-yl)amino)phenyl)acrylamide]
- ERK1 Mass Mod (%) (Erk1): G (proived a mass modification ≦30%)
- IC50 (MEK1 activated ERK1): > 1000 nM

SMILES: C=CC(=O)Nc1ccccc1Nc1nc(Nc2ccc(OCCCNC(=O)CCCC(=O)NCCCOCCOCCOCCCNC(=O)CCCC[C@H]3SC[C@H]4NC(=O)N[C@H]43)cc2OC)ncc1Cl [Compound I-302, N^1-(3-(4-((4-((2-acrylamidophenyl)amino)-5-chloropyrimidin-2-yl)amino)-3-methoxyphenoxy)propyl)-N^5-(15-oxo-19-((3aR,4R,6aS)-2-oxohexahydro-1H-thieno[3,4-d]imidazol-4-yl)-4,7,10-trioxa-14-azanonadecyl)glutaramide]
- ERK1 Mass Mod (%) (Erk1): E (provided a mass modification of ≧70%)
- IC50 (MEK1 activated ERK1): > 1000 nM

SMILES: C=CC(=O)Nc1ccccc1Nc1nc(N[C@H]2CCCN(C(=O)CCCC(=O)NCCCOCCOCCOCCCNC(=O)CCCC[C@@H]3SC[C@@H]4NC(=O)N[C@@H]43)C2)ncc1Cl [Compound I-303, 5-((S)-3-((4-((2-acrylamidophenyl)amino)-5-chloropyrimidin-2-yl)amino)piperidin-1-yl)-5-oxo-N-(15-oxo-19-((3aS,4S,6aR)-2-oxohexahydro-1H-thieno[3,4-d]imidazol-4-yl)-4,7,10-trioxa-14-azanonadecyl)pentanamide]
- ERK1 Mass Mod (%) (Erk1): E (provided a mass modification of ≧70%)
- IC50 (MEK1 activated ERK1): > 1000 nM

SMILES: NC(=O)c1ccccc1Nc1nc(N[C@H]2CCCN(C(=O)CO)C2)ncc1C(F)(F)F [Compound I-307, (S)-2-((2-((1-(2-hydroxyacetyl)piperidin-3-yl)amino)-5-(trifluoromethyl)pyrimidin-4-yl)amino)benzamide]
- ERK1 Mass Mod (%) (Erk1): G (proived a mass modification ≦30%)
- IC50 (MEK1 activated ERK1): < 100 nM

SMILES: CC(=O)N1CCC[C@H](Nc2ncc(C(F)(F)F)c(N[C@@H]3[C@H](C(N)=O)[C@H]4C=C[C@@H]3C4)n2)C1 [Compound I-309, (1R,2R,3S,4S)-3-((2-(((S)-1-acetylpiperidin-3-yl)amino)-5-(trifluoromethyl)pyrimidin-4-yl)amino)bicyclo[2.2.1]hept-5-ene-2-carboxamide]
- ERK1 Mass Mod (%) (Erk1): G (proived a mass modification ≦30%)
- IC50 (MEK1 activated ERK1): > 1000 nM

SMILES: CC(C)S(=O)(=O)c1ccccc1Nc1nc(N[C@H]2CCCN(C(=O)CO)C2)ncc1C(F)(F)F [Compound I-310, (S)-2-hydroxy-1-(3-((4-((2-(isopropylsulfonyl)phenyl)amino)-5-(trifluoromethyl)pyrimidin-2-yl)amino)piperidin-1-yl)ethanone]
- ERK1 Mass Mod (%) (Erk1): G (proived a mass modification ≦30%)
- IC50 (MEK1 activated ERK1): < 100 nM

SMILES: COc1cc(N2CCOCC2)ccc1Nc1ncc(N)c(Nc2ccccc2N)n1 [Compound I-312, N^4-(2-aminophenyl)-N^2-(2-methoxy-4-morpholinophenyl)pyrimidine-2,4,5-triamine]
- ERK1 Mass Mod (%) (Erk1): G (proived a mass modification ≦30%)
- IC50 (MEK1 activated ERK1): > 1000 nM

SMILES: CCC(=O)Nc1ccccc1Nc1nc(Nc2ccc3c(c2)CCCC(=O)N3CCCN)ncc1Cl [Compound I-314, N-(2-((2-((1-(3-aminopropyl)-2-oxo-2,3,4,5-tetrahydro-1H-benzo[b]azepin-7-yl)amino)-5-chloropyrimidin-4-yl)amino)phenyl)propionamide]
- ERK1 Mass Mod (%) (Erk1): G (proived a mass modification ≦30%)
- IC50 (MEK1 activated ERK1): < 100 nM

SMILES: CCC(=O)Nc1ccccc1Nc1nc(Nc2ccc3c(c2OC)CCCC(=O)N3CC)ncc1Cl [Compound I-315, N-(2-((5-chloro-2-((1-ethyl-6-methoxy-2-oxo-2,3,4,5-tetrahydro-1H-benzo[b]azepin-7-yl)amino)pyrimidin-4-yl)amino)phenyl)propionamide]
- ERK1 Mass Mod (%) (Erk1): G (proived a mass modification ≦30%)
- IC50 (MEK1 activated ERK1): > 1000 nM

SMILES: CCC(=O)Nc1ccccc1Nc1nc(N[C@H]2CCCN(C(C)=O)C2)ncc1C(F)(F)F [Compound I-317, (S)—N-(2-((2-((1-acetylpiperidin-3-yl)amino)-5-(trifluoromethyl)pyrimidin-4-yl)amino)phenyl)propionamide]
- ERK1 Mass Mod (%) (Erk1): G (proived a mass modification ≦30%)
- IC50 (MEK1 activated ERK1): < 100 nM

SMILES: CCC(=O)Nc1ccccc1Nc1nc(N[C@H]2CCCN(C(=O)CO)C2)ncc1C(F)(F)F [Compound I-318, (S)—N-(2-((2-((1-(2-hydroxyacetyl)piperidin-3-yl)amino)-5-(trifluoromethyl)pyrimidin-4-yl)amino)phenyl)propionamide]
- ERK1 Mass Mod (%) (Erk1): G (proived a mass modification ≦30%)
- IC50 (MEK1 activated ERK1): < 100 nM

SMILES: C=CC(=O)Nc1ccccc1Nc1nc(Nc2ccnc(NC)c2)ncc1C(F)(F)F [Compound I-321, N-(2-((2-((2-(methylamino)pyridin-4-yl)amino)-5-(trifluoromethyl)pyrimidin-4-yl)amino)phenyl)acrylamide]
- ERK1 Mass Mod (%) (Erk1): E (provided a mass modification of ≧70%)
- IC50 (MEK1 activated ERK1): > 1000 nM

SMILES: C=CC(=O)Nc1cc(F)ccc1Nc1nc(Nc2cc(OC)ncc2C)ncc1C(F)(F)F [Compound I-322, N-(5-fluoro-2-((2-((2-methoxy-5-methylpyridin-4-yl)amino)-5-(trifluoromethyl)pyrimidin-4-yl)amino)phenyl)acrylamide]
- ERK1 Mass Mod (%) (Erk1): E (provided a mass modification of ≧70%)
- IC50 (MEK1 activated ERK1): < 100 nM
